One test concerns the target T1, rat Nluc-A2BR (Rattus norvegicus, UniProt P29276, M1L).
T1 construct: gene Adora2b; internal XhoI site removed (silent by primer); transient in intact HEK293T cells
T1 sequence (P29276 1-332 M1L): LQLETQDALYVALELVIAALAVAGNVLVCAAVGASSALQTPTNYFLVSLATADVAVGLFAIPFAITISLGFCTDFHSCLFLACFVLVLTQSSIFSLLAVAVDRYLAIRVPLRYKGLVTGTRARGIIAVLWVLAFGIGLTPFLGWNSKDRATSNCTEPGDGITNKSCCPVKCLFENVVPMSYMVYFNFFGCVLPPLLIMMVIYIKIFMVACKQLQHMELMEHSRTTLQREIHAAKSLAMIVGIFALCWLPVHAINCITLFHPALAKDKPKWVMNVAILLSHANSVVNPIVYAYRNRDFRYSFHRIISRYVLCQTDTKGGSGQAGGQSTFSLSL
The test can be described thus: NanoBRET competition binding with CA200645, intact HEK293T cells. Type of test: cell-based. As to conditions: for Ki: read-out: Nluc-rat A2B (pKD or pKi) (converted). From the text: NanoBRET competition binding with CA200645, intact HEK293T cells on rat Nluc-A2BR
A general note: Bioluminescence resonance energy transfer reports proximity on the nanometre scale.

Another test deals with T2, rat Nluc-A2AR (Rattus norvegicus, UniProt P30543, M1L).
T2 construct: gene Adora2a; internal BamHI site removed (silent by primer); transient in intact HEK293T cells
T2 sequence (P30543 whole entry M1L): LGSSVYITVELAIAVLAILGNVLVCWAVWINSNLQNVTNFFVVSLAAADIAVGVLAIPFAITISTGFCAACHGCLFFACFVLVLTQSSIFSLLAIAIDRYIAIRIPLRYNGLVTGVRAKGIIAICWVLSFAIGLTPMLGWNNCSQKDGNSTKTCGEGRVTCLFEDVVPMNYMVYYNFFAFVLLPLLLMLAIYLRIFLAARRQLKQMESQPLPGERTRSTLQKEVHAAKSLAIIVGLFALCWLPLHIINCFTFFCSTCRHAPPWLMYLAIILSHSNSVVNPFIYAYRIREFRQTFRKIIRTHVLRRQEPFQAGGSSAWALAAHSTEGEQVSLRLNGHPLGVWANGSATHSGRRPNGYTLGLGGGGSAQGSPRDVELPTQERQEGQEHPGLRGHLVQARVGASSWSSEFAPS
The test is described as above. It counts as cell-based. As to conditions: read-out: Nluc-rat A2A (pKD or pKi) (converted). From the text:
NanoBRET competition binding with CA200645, intact HEK293T cells on rat Nluc-A2AR

With `Nc1nc2c(cnn2CCc2ccccc2)c2nc(-c3ccco3)nn12` [SCH 58261, 2‐(2‐Furanyl)‐7‐(2‐phenylethyl)‐7H‐pyrazolo[4,3‐e][1,2,4]triazolo[1,5‐c]pyrimidin‐5‐amine], at rat Nluc-A2BR, the Ki is 708 nM.
With `CCCn1c(=O)[nH]c2nc(-c3ccc(S(=O)(=O)O)cc3)[nH]c2c1=O` [PSB 1115, 4‐(2,3,6,7‐Tetrahydro‐2,6‐dioxo‐1‐propyl‐1H‐purin‐8‐yl)‐benzenesulfonic acid], the Ki at rat Nluc-A2BR is 537 nM; at rat Nluc-A2AR, 2880 nM.
On the same counts, the results for `CCCn1c(=O)[nH]c2nc(-c3ccc(S(=O)(=O)N4CCN(c5ccc(Cl)cc5)CC4)cc3)[nH]c2c1=O` [PSB 603] are 2 nM and 490 nM.
On to `N#Cc1c(N)nc(SCC(N)=O)c(C#N)c1-c1ccc(OCC2CC2)cc1` [BAY 60‐6583, 2‐[[6‐Amino‐3,5‐dicyano‐4‐[4‐(cyclopropylmethoxy)phenyl]‐2‐pyridinyl]thio]‐acetamide], for which, at rat Nluc-A2BR ([…] CA200645, HBSS pH […] BSA, […] DMSO, […] °C, […] h, Cheng-Prusoff), the “Nluc-rat A2B (pKD or pKi)” value came to 6.33 ± 0.03.

(Values after publication PMC9415116, “Regionally selective cardiovascular responses to adenosine A2A and A2B receptor activation” (The FASEB Journal, 2022).)
